Measured values reported in PMC7083851, “Extended pharmacodynamic responses observed upon PROTAC-mediated degradation of RIPK2” (Communications Biology, 2020).
Values joined by “and” are separate entries in the source; they are usually repeats but may differ in a detail not shown here. Equal entries are not always repeated.

What was measured:
MDP-induced TNFα release = MDP-induced TNFα release in human whole blood; format: cell-based; settings: inhibition of MDP-induced TNFα release
Procedure: Before treatment with compound or vehicle, THP1 cells, human and rat PBMCs were counted using Vi-Cell cell counter (Invitrogen) and adjusted to a final cell density of […] using complete growth medium. Cells or whole blood were treated with vehicle (0.1% DMSO) or fixed concentrations of compound up to 1 μM in half log unit increments and incubated for the time period indicated in the figure.
Where the assessment of cytokines was performed, L18-MDP was added to the cell culture media (1 μg/ml) or to the rat blood samples (100 ng/ml) and samples were incubated for up to 4 h. […]
Cytokine measurement assay: Cytokine levels were measured in rat plasma or rat PBMCs cell culture supernatants using rat V-Plex TNFα, in human plasma or human PBMCs cell culture supernatants with either TNFα tissue culture or 7-plex kit. Rat serum and tissues samples from the in vivo L18-MDP acute inflammation model were analyzed using the rat TNFα, Il-6 and IL-8 U-Plex kits. […] Levels of cytokines spontaneously released from human colon biopsies cell culture supernatants were measured using Human IL-1 beta/IL-1F2 DuoSet ELISA (Bio-techne), Human IL-6 ELISA (Immunotools) and Human TNF-alpha DuoSet ELISA (Bio-techne). […] The MSD plates were analyzed using the MSD sector imager 6000 plate reader and cytokines concentration (pg/ml) was obtained by using the MSD DISCOVERY WORKBENCH software version 4.0.12.1 […]

RIPK2 = biological target: T1, RIPK2 (Rattus norvegicus, UniProt G3V783); assay: RIPK2 levels in colon of dosed rats (Western blot); format: in vivo; settings: for RIPK2 level in colon (fig 5f): vehicle control 0.0136-0.0240
T1 construct: from tissue; host or cells: terminal colon samples of dosed rats
T1 sequence (G3V783 1-539): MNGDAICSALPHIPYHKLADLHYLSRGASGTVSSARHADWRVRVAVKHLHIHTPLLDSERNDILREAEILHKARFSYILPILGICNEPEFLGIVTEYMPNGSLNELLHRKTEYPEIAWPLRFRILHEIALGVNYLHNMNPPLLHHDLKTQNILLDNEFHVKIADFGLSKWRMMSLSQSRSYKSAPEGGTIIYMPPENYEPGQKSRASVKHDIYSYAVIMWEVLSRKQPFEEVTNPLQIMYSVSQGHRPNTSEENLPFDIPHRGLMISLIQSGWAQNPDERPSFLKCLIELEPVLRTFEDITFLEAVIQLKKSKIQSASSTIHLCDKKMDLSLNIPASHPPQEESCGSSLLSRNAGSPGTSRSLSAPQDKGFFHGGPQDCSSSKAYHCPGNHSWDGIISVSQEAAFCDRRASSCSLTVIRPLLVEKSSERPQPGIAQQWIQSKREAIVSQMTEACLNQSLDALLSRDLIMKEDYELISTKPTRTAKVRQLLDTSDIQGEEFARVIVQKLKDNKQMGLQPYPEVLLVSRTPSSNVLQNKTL
Procedure: Rat PK/PD studies: On arrival, all rats were housed in a plastic solid bottom cage in groups of 2–3 with access to food and water ad libitum and under a 12 h light–dark cycle. Male CD or Wistar Han rats (7–9 weeks old, Charles River UK Ltd.) were randomly allocated to treatment groups upon arrival. Female CD rats (7–8 weeks old on arrival, Charles River Ltd.) were placed into groups using a randomization schedule based on body weight prior to the study start. All animals were acclimatized for a minimum of one week prior to the experiment commencing.
Ex vivo stimulation of rat blood with L18-MDP for PD: PPD blood samples taken prior to PROTAC administration or at fixed timepoints post PROTAC administration through the course of the study, were treated ex vivo with 100 ng/mL L18-MDP (Invivogen) or vehicle (0.1% DMSO) and incubated for 4 h. Following centrifugation, plasma was collected for cytokines analysis as detailed in cytokines assay section. Additionally, RIPK2 levels were determined in PBMCs isolated from blood and where collected, in sampled colon tissue as described in the text.
For in vivo studies, RIPK2:tubulin ratios and cytokine levels from each individual experiment were analysed either using a One-way ANOVA with Dunnet’s post-test or a two way ANOVA using GraphPad Prism 5.0.4 to determine statistical significance with 95% confidence levels.

| SMILES | hWB MDP pIC50 ± SEM (n) (MDP-induced TNFα release) | RIPK2 level in colon (fig 5f) (RIPK2; 0.05 mg/kg, individual rats 1-4) | RIPK2 level in colon (fig 5f) (RIPK2; 0.5 mg/kg, individual rats 5-8) | RIPK2 in terminal colon samples, in words (RIPK2; rat, 0.05 and 0.5 mg/kg QD SC, Western blot) |
| --- | --- | --- | --- | --- |
| CN[C@@H](C)C(=O)N[C@H](C(=O)N1CCC[C@H]1c1nc(C(=O)c2ccc(F)cc2)cs1)C1CCN(C(=O)c2cnc(N3CCN(CCOc4cc5ncnc(Nc6n[nH]c(C)c6C)c5cc4S(=O)(=O)C(C)(C)C)CC3)nc2)CC1 [PROTAC 4] | 7.7 ± 0.05 (4) | – | – | – |
| CN[C@@H](C)C(=O)N[C@H](C(=O)N1C[C@@H](NC(=O)c2cnc(N3CCN(CCCOc4cc5ncnc(Nc6n[nH]c(C)c6C)c5cc4S(=O)(=O)C(C)(C)C)CC3)cn2)C[C@H]1C(=O)Nc1c(F)cccc1F)C(C)(C)C [PROTAC 6] | – | 0.0091 and 0.0088 and 0.0071 and 0.0105 | 0.0034 and 0.0025 and 0.0038 and 0.0043 | significant degradation of RIPK2 |
